Measured values as given in US12522855B2, “Methods and kits for identifying thrombus origin and optimizing post-ischemic event treatment” (TEL HASHOMER MEDICAL RESEARCH INFRASTRUCTURE AND SERVICES …, priority 2019, dated 2026).

Molecular target: thrombin (Homo sapiens, UniProt P00734)
Conditions: 1 μM final concentration, added to selected reaction wells; 15 clots from randomized sources
Experimental: Thrombin activity was measured as previously described by Beilin et al., (2001, Neuroreport: doi:10.1097/00001756-200108080-00013) in 10 L triplicates of clot-free buffer in a black Nunc 96 wells microplate by a fluorometric assay quantifying the cleavage of the synthetic peptide thrombin substrate Boc-Asp(OBzl)-Pro-Arg-AMC (I-1560, Bachem, Switzerland, 13 μM final concentration). Measurements were performed by the Infinite 2000 microplate reader (Tecan, infinite 200, Switzerland) with excitation and emission filters of 360±35 and 460±35 nm, respectively. For calibration, known concentrations of bovine thrombin (Sigma-Aldrich, Israel) were used in the same assay.

NAPAP
effect on thrombin activity profile (specificity check of the fluorescent signal): high and consistent abolition of thrombin activity profile
